According to article PMC5999115, “Anti-tumor activity of phenoxybenzamine and its inhibition of histone deacetylases” (PLoS ONE, 2018):

Assays:
Assay in all cases: Oncotest CellTiter-Blue cell viability assay, 72 hours
Type in all cases: cell-based, human
[1] = test system: MEXF UACC-257; conditions: MEXF UACC-257
Method: (§1) Further studies with varying drug concentrations on selected human cell lines, in most cases those studied in the NCI60 screen, were conducted by Oncotest GmbH laboratories, Freiburg, Germany; Oncotest is a division of Charles River Laboratories. The dissolution procedure for PBZ and the cell culture […] was 72 hours; anti-tumor activity was determined with the CellTiter-Blue® Cell Viability Assay, Promega, Mannheim, Germany. The 50% Inhibitory (IC50) concentrations were determined. The results are the average of duplicate assays. Paclitaxel was included as a reference compound to confirm the integrity of the assays. See S1 Appendix for further details.
(§2) “Cell lines were routinely passaged once or twice weekly and maintained in culture for up to 20 passages. Cells were grown at 37°C in a humidified atmosphere with 5% CO2 in RPMI 1640 medium (25 mM HEPES, with L-glutamine, #FG1385, Biochrom, Berlin, Germany) supplemented with 10% (v/v) fetal calf serum (Sigma, Taufkirchen, Germany) and 0.1 mg/mL gentamicin (Life Technologies, Karlsruhe, Germany).”

[2] = test system: CNXF U-251
Method: as §1, §2

[3] = test system: LXFS DMS 273
Method: as §1, §2

[4] = test system: OVXF OVCAR-8
Method: as §1, §2

[5] = CNXF U-251, 1% FCS, study P495C
[6] = CNXF U-251, 10% FCS, study P495A
[7] = LXFS DMS273, 1% FCS, study P495C
[8] = LXFS DMS273, 10% FCS, study P495A
[9] = OVXF OVCAR-8, 1% FCS, study P495C
[10] = OVXF OVCAR-8, 10% FCS, study P495A
[11] = OVXF OVCAR-8, 10% FCS, study P495B

`CC(COc1ccccc1)N(CCCl)Cc1ccccc1` (stereo not drawn) [PBZ, phenoxybenzamine] was tested, and the “Test/Control (%) at Drug Concentration [uM] 3,2E+00” value (from here on “Test/Control (%) … [uM] 3,2E+00”) ([1]; 1% FCS, study P495C) was 106%, the “Test/Control (%) at Drug Concentration [uM] 3,2E+01” value (from here on “Test/Control (%) … [uM] 3,2E+01”) ([1]; 1% FCS, study P495C) was 77% and the “Test/Control (%) at Drug Concentration [uM] 1,0E+00” value (from here on “Test/Control (%) … [uM] 1,0E+00”) ([1]; 10% FCS, study P495A) was 101%. For the same compound, the “Test/Control (%) at Drug Concentration [uM] 1,0E+01” value (shortened to “Test/Control (%) … [uM] 1,0E+01”) ([1]; 10% FCS, study P495A) was 107%, the “Test/Control (%) at Drug Concentration [uM] 1,0E+02” value (“Test/Control (%) … [uM] 1,0E+02” below) ([1]; 10% FCS, study P495A) was 68% and the “Test/Control (%) at Drug Concentration [uM] 1,0E-01” value (from here on “Test/Control (%) … [uM] 1,0E-01”) ([1]; 10% FCS, study P495A) was 101%. For the same compound, the “Test/Control (%) at Drug Concentration [uM] 1,0E-02” value (from here on “Test/Control (%) … [uM] 1,0E-02”) ([1]; 10% FCS, study P495A) was 101%, the “Test/Control (%) … [uM] 3,2E+00” value ([1]; 10% FCS, study P495A) was 109% and the “Test/Control (%) … [uM] 3,2E+01” value ([1]; 10% FCS, study P495A) was 106%. For the same compound, the “Test/Control (%) at Drug Concentration [uM] 3,2E-01” value (from here on “Test/Control (%) … [uM] 3,2E-01”) ([1]; 10% FCS, study P495A) was 104%, the “Test/Control (%) at Drug Concentration [uM] 3,2E-02” value (shortened to “Test/Control (%) … [uM] 3,2E-02”) ([1]; 10% FCS, study P495A) was 113% and the “Test/Control (%) at Drug Concentration [uM] 3,2E-03” value (“Test/Control (%) … [uM] 3,2E-03” below) ([1]; 10% FCS, study P495A) was 103%. For the same compound, the “Test/Control (%) … [uM] 1,0E+00” value [2, 5] was 98%, the “Test/Control (%) … [uM] 1,0E+01” value [2, 5] was 102% and the “Test/Control (%) … [uM] 1,0E+02” value [2, 5] was 36%. The “Test/Control (%) … [uM] 3,2E+00” value [2, 5] was 102%, the “Test/Control (%) … [uM] 3,2E+01” value [2, 5] was 98% and the “Test/Control (%) … [uM] 1,0E+00” value [2, 6] was 92%. The “Test/Control (%) … [uM] 1,0E+01” value [2, 6] was 103%, the “Test/Control (%) … [uM] 1,0E+02” value [2, 6] was 98% and the “Test/Control (%) … [uM] 1,0E-01” value [2, 6] was 90%. For the same compound, the “Test/Control (%) … [uM] 1,0E-02” value [2, 6] was 90%, the “Test/Control (%) … [uM] 3,2E+00” value [2, 6] was 94% and the “Test/Control (%) … [uM] 3,2E+01” value [2, 6] was 118%. The “Test/Control (%) … [uM] 3,2E-01” value [2, 6] was 93%, the “Test/Control (%) … [uM] 3,2E-02” value [2, 6] was 93% and the “Test/Control (%) … [uM] 3,2E-03” value [2, 6] was 85%. The IC50 ([2]; Homo sapiens, CNXF U-251 CNS, 1% FCS) was 83.1 µM, the IC50 ([3]; Homo sapiens, LXFS DMS 273 Small-cell lung, 1% FCS) was 99.8 µM and the “Test/Control (%) … [uM] 1,0E+00” value [3, 7] was 104%. For the same compound, the “Test/Control (%) … [uM] 1,0E+01” value [3, 7] was 91%, the “Test/Control (%) … [uM] 1,0E+02” value [3, 7] was 49% and the “Test/Control (%) … [uM] 3,2E+00” value [3, 7] was 101%. The “Test/Control (%) … [uM] 3,2E+01” value [3, 7] was 100%, the “Test/Control (%) … [uM] 1,0E+00” value [3, 8] was 76% and the “Test/Control (%) … [uM] 1,0E+01” value [3, 8] was 82%. For the same compound, the “Test/Control (%) … [uM] 1,0E+02” value [3, 8] was 105%, the “Test/Control (%) … [uM] 1,0E-01” value [3, 8] was 81% and the “Test/Control (%) … [uM] 1,0E-02” value [3, 8] was 75%. For the same compound, the “Test/Control (%) … [uM] 3,2E+00” value [3, 8] was 87%, the “Test/Control (%) … [uM] 3,2E+01” value [3, 8] was 100% and the “Test/Control (%) … [uM] 3,2E-01” value [3, 8] was 80%. For the same compound, the “Test/Control (%) … [uM] 3,2E-02” value [3, 8] was 74%, the “Test/Control (%) … [uM] 3,2E-03” value [3, 8] was 83% and the “Percent cell growth in Oncotest screen with 10% FCS (72 hr incubation)” value ([4]; 10 μM phenoxybenzamine, OVCAR-8) was 90%. For the same compound, the IC50 ([4]; Homo sapiens, OVXF OVCAR-8 Ovarian, 1% FCS) was 31.9 µM, the “Test/Control (%) … [uM] 1,0E+00” value [4, 9] was 102% and the “Test/Control (%) … [uM] 1,0E+01” value [4, 9] was 100%. For the same compound, the “Test/Control (%) … [uM] 1,0E+02” value [4, 9] was 22%, the “Test/Control (%) … [uM] 3,2E+00” value [4, 9] was 104% and the “Test/Control (%) … [uM] 3,2E+01” value [4, 9] was 61%. The “Test/Control (%) … [uM] 1,0E+00” value [4, 10] was 84%, the “Test/Control (%) … [uM] 1,0E+01” value [4, 10] was 90% and the “Test/Control (%) … [uM] 1,0E+02” value [4, 10] was 67%. For the same compound, the “Test/Control (%) … [uM] 1,0E-01” value [4, 10] was 85%, the “Test/Control (%) … [uM] 1,0E-02” value [4, 10] was 90% and the “Test/Control (%) … [uM] 3,2E+00” value [4, 10] was 92%. The “Test/Control (%) … [uM] 3,2E+01” value [4, 10] was 96%, the “Test/Control (%) … [uM] 3,2E-01” value [4, 10] was 86% and the “Test/Control (%) … [uM] 3,2E-02” value [4, 10] was 86%. For the same compound, the “Test/Control (%) … [uM] 3,2E-03” value [4, 10] was 84%, the “Test/Control (%) … [uM] 1,0E+00” value [4, 11] was 89% and the “Test/Control (%) … [uM] 1,0E+01” value [4, 11] was 82%. The “Test/Control (%) … [uM] 1,0E+02” value [4, 11] was 32%, the “Test/Control (%) … [uM] 1,0E-01” value [4, 11] was 86% and the “Test/Control (%) … [uM] 1,0E-02” value [4, 11] was 90%. For the same compound, the “Test/Control (%) at Drug Concentration [uM] 1,0E-03” value [4, 11] was 92%, the “Test/Control (%) … [uM] 3,2E+00” value [4, 11] was 84% and the “Test/Control (%) … [uM] 3,2E+01” value [4, 11] was 74%.
